Laboratory results from PMC9587990, “Molecular basis for isoform-selective inhibition of presenilin-1 by MRK-560” (Nature Communications, 2022).
Several values for one entry are separate records, joined by “and”; a condition that tells them apart may be missing. Identical values can stand only once. Entries after “also recorded” stand apart in the source; their conditions may differ. Like-named read-outs stand apart in the source and are kept apart here.

What was measured:
Type in all cases: biochemical
[1] = target: T1, PS2 I288L γ-secretase complex (Homo sapiens, UniProt P49810, I288L); assay: in vitro cleavage assay, Aβ40 production by AlphaLISA; settings: for remaining activity at 0.002 µM / remaining activity at 0.04 µM / remaining activity at 0.2 µM / remaining activity at 1 µM / remaining activity at 10 µM / remaining activity at 20 µM: 4 h
T1 construct: made in house
Procedure: In total we generated six variants, including single and double residue swapping of Thr281/Leu282 in PS1 with Pro287/Ile288 in PS2, respectively. MRK-560 response to the six PS1/PS2 mutant-containing complexes, each purified to homogeneity, was examined in the in vitro cleavage assay (Fig. 4). All proteins used for the activity assay were sub-cloned, expressed and purified as described. Protein concentration was determined using the Bradford method. […] The cleavage reaction was conducted at 37 °C for 4 h. The cleaved products of these substrates were detected using a monoclonal antibody (1:1000 dilution, CW0299, CWBio) against the C-terminal Myc tag. Aβ40 production was detected using the AlphaLISA assay (PerkinElmer) as described. The IC50 values and the inhibition curves were calculated using Prism 8.0. Statistical analysis of Aβ40 was performed using Prism 8 (GraphPad Software, San Diego, CA, USA). IC50 were determined by a four-parameter logistic regression. The statistical details can be found in Figs. 1, 4 and legends. Data are expressed as mean ± SD.

WT PS1-complex = target: T2, WT PS1-complex (Homo sapiens, UniProt P49768); assay: in vitro cleavage assay, AICD production by western blot; settings: 200 nM MRK-560, WT PS1-complex
T2 construct: made in house; host or cells: mammalian cells (HEK293F is stated for the cryo-EM samples)
Procedure: (§1) The PS1- or PS2 complexes were expressed and purified as described. To validate the inhibitory effect of MRK-560 (Fig. 1a), we reconstituted an in vitro cleavage assay using the purified PS1- or PS2 complexes. Production of Aβ40, which is the major cleavage product among the varying lengths of Aβs, and AICD, whose cleavage reflects the endopeptidase activity of γ-secretase, are measured with AlphaLISA and western blots, respectively.
(§2) Release of AICD in the presence of decreasing concentrations of MRK-560 from 10 μM to 2 nM was monitored by western blot with the primary monoclonal antibody against the C-terminal Myc tag. The production of AICD was quantified by ImageJ. Red asterisks indicate the first concentration where the normalized production of AICD was reduced to less than 20%. Each cleavage assay in (b–d) was repeated for three times. Error bars: SD. Source Data is available as a Source Data file.
(§3) All proteins used for the activity assay were sub-cloned, expressed and purified as described. Protein concentration was determined using the Bradford method. […] The cleaved products of these substrates were detected using a monoclonal antibody (1:1000 dilution, CW0299, CWBio) against the C-terminal Myc tag. Aβ40 production was detected using the AlphaLISA assay (PerkinElmer) as described. The IC50 values and the inhibition curves were calculated using Prism 8.0.

WT PS2-complex = target: T3, WT PS2-complex (Homo sapiens, UniProt P49810); assay: as above; settings: 10 μM MRK-560, WT PS2-complex
T3 construct: made in house; host or cells: mammalian cells (HEK293F is stated for the cryo-EM samples)
Procedure: as §1, §2, §3

remaining activity at 0.002 µM ([1]; MRK-560 2 nM, mean of 3 replicates, read-out: Normalized production (control=1), Mean): 110% | remaining activity at 0.002 µM ([1]; MRK-560 2 nM, replicates, read-out: Normalized production (control=1)): 110% | remaining activity at 0.04 µM ([1]; MRK-560 40 nM, mean of 3 replicates, read-out: Normalized production (control=1), Mean): 65.9% | remaining activity at 0.04 µM ([1]; MRK-560 40 nM, replicates, read-out: Normalized production (control=1)): 68% | remaining activity at 0.2 µM ([1]; MRK-560 200 nM, mean of 3 replicates, read-out: Normalized production (control=1), Mean): 17.7% | remaining activity at 0.2 µM ([1]; MRK-560 200 nM, replicates, read-out: Normalized production (control=1)): 17.9% | remaining activity at 1 µM ([1]; MRK-560 1 μM, mean of 3 replicates, read-out: Normalized production (control=1), Mean): 5.3% | remaining activity at 1 µM ([1]; MRK-560 1 μM, replicates, read-out: Normalized production (control=1)): 5.2% | remaining activity at 10 µM ([1]; MRK-560 10 μM, mean of 3 replicates, read-out: Normalized production (control=1), Mean): 1.39% | remaining activity at 10 µM ([1]; MRK-560 10 μM, replicates, read-out: Normalized production (control=1)): 1.35% | remaining activity at 20 µM ([1]; MRK-560 20 μM, mean of 3 replicates, read-out: Normalized production (control=1), Mean): 1.69% | remaining activity at 20 µM ([1]; MRK-560 20 μM, replicates, read-out: Normalized production (control=1)): 1.61% | Caculated Aβ40 production ([1]; MRK-560 2 nM, replicates): 534.8273 and 537.0982 and 529.5442 | raw data from α-Lisa reading ([1]; MRK-560 2 nM, replicates): 78346 and 78633 and 77677 | Caculated Aβ40 production ([1]; MRK-560 40 nM, replicates): 330.6964 and 306.7347 and 323.3048 | raw data from α-Lisa reading ([1]; MRK-560 40 nM, replicates): 51118 and 47725 and 50076 | Caculated Aβ40 production ([1]; MRK-560 200 nM, replicates): 87.0033 and 86.1156 and 85.5883 | raw data from α-Lisa reading ([1]; MRK-560 200 nM, replicates): 14434 and 14291 and 14206 | Caculated Aβ40 production ([1]; MRK-560 1 μM, replicates): 25.2908 and 26.2376 and 25.7761 | raw data from α-Lisa reading ([1]; MRK-560 1 μM, replicates): 4315 and 4473 and 4396 | Caculated Aβ40 production ([1]; MRK-560 10 μM, replicates): 6.5772 and 6.8972 and 6.7964 | raw data from α-Lisa reading ([1]; MRK-560 10 μM, replicates): 1174 and 1228 and 1211 | Caculated Aβ40 production ([1]; MRK-560 20 μM, replicates): 7.8160 and 7.8990 and 8.9905 | raw data from α-Lisa reading ([1]; MRK-560 20 μM, replicates): 1383 and 1397 and 1581 | IC50 ([1]; mean ± SD): 57 ± 10 nM | Generation of AICD (WT PS1-complex): completely inhibited
Structure (SMILES): O=S(=O)(NC1CCC(c2cc(F)ccc2F)(S(=O)(=O)c2ccc(Cl)cc2)CC1)C(F)(F)F (stereo not drawn) [MRK-560, N-[cis-4-[(4-chlorophenyl)sulfonyl]-4-(2,5-difluorophenyl)cyclohexyl]-1,1,1-trifluoromethanesulfonamide]
Generation of AICD (WT PS2-complex): can still be detected; also recorded: could not be completely inhibited
